The values that follow are results of earlier work, collected in PubChem BioAssay AID1259409 (Chemical Carcinogenesis Research Information System (CCRIS), 2018).

In the data set the test system is rodent chemically induced tumor inhibition, incidence and multiplicity. Description: CCRIS tumor inhibitor studies.

For the molecule `COc1cc(/C=C/C(=O)O)ccc1O`, the “tumour outcome (control, treated, inhibition, significance)” value (Carcinogen: AZOXYMETHANE [25843-45-2], Dose [Inhibitor]: 0, 500 PPM IN DIET FOR 23 WK BEGINNING POST LAST CARCINOGEN DOSE (STUDY DURATION: 35 WK), Route [Inhibitor]: ORAL, Species: RAT, Strain/Sex: F344/MALE, Target Tissue: Type of Lesion: LARGE INTESTINE: TUMOR, Dose [Carcinogen]: 15 MG/KG 3X/WK FOR 12 WK (STUDY DURATION: 35 WK), Promoter: NONE) is recorded as 11%, 32%, -190%, not significant; the “tumour outcome (control, treated, inhibition, significance)” value (Carcinogen: AZOXYMETHANE [25843-45-2], Dose [Inhibitor]: 0, 500 PPM IN DIET FOR 23 WK BEGINNING POST LAST CARCINOGEN DOSE (STUDY DURATION: 35 WK), Route [Inhibitor]: ORAL, Species: RAT, Strain/Sex: F344/MALE, Target Tissue: Type of Lesion: SMALL INTESTINE: TUMOR, Dose [Carcinogen]: 15 MG/KG 3X/WK FOR 12 WK (STUDY DURATION: 35 WK), Promoter: NONE) is listed as 18%, 27%, -50%, not significant; the “tumour outcome (control, treated, inhibition, significance)” value (Carcinogen: AZOXYMETHANE [25843-45-2], Dose [Inhibitor]: 250 PPM IN DIET FOR 4 WK BEGINNING 1 WK PRIOR TO FIRST CARCINOGEN DOSE (STUDY DURATION: 35 WK), Route [Inhibitor]: ORAL, Species: RAT, Strain/Sex: F344/MALE, Target Tissue: Type of Lesion: LARGE INTESTINE: TUMOR, Dose [Carcinogen]: 15 MG/KG 1X/WK FOR 3 WK (STUDY DURATION: 35 WK), Promoter: NONE) is recorded as 59%, 32%, 46%, not significant; the “tumour outcome (control, treated, inhibition, significance)” value (Carcinogen: AZOXYMETHANE [25843-45-2], Dose [Inhibitor]: 250 PPM IN DIET FOR 4 WK BEGINNING 1 WK PRIOR TO FIRST CARCINOGEN DOSE (STUDY DURATION: 35 WK), Route [Inhibitor]: ORAL, Species: RAT, Strain/Sex: F344/MALE, Target Tissue: Type of Lesion: SMALL INTESTINE: TUMOR, Dose [Carcinogen]: 15 MG/KG 1X/WK FOR 3 WK (STUDY DURATION: 35 WK), Promoter: NONE) was 23%, 5%, 78%, not significant; the “tumour outcome (control, treated, inhibition, significance)” value (Carcinogen: AZOXYMETHANE [25843-45-2], Dose [Inhibitor]: 250 PPM IN DIET FOR 31 WK BEGINNING 1 WK POST LAST CARCINOGEN DOSE (STUDY DURATION: 35 WK), Route [Inhibitor]: ORAL, Species: RAT, Strain/Sex: F344/MALE, Target Tissue: Type of Lesion: LARGE INTESTINE: TUMOR, Dose [Carcinogen]: 15 MG/KG 1X/WK FOR 3 WK (STUDY DURATION: 35 WK), Promoter: NONE) is 59%, 41%, 31%, not significant; the “tumour outcome (control, treated, inhibition, significance)” value (Carcinogen: AZOXYMETHANE [25843-45-2], Dose [Inhibitor]: 250 PPM IN DIET FOR 31 WK BEGINNING 1 WK POST LAST CARCINOGEN DOSE (STUDY DURATION: 35 WK), Route [Inhibitor]: ORAL, Species: RAT, Strain/Sex: F344/MALE, Target Tissue: Type of Lesion: SMALL INTESTINE: TUMOR, Dose [Carcinogen]: 15 MG/KG 1X/WK FOR 3 WK (STUDY DURATION: 35 WK), Promoter: NONE) was 23%, 23%, 0%, not significant. For the same molecule, the “tumour outcome (control, treated, inhibition, significance)” value is 59%, 32%, 46%, not significant (Carcinogen: AZOXYMETHANE [25843-45-2], Dose [Inhibitor]: 500 PPM IN DIET FOR 4 WK BEGINNING 1 WK PRIOR TO FIRST CARCINOGEN DOSE (STUDY DURATION: 35 WK), Route [Inhibitor]: ORAL, Species: RAT, Strain/Sex: F344/MALE, Target Tissue: Type of Lesion: LARGE INTESTINE: TUMOR, Dose [Carcinogen]: 15 MG/KG 1X/WK FOR 3 WK (STUDY DURATION: 35 WK), Promoter: NONE); 23%, 5%, 78%, not significant (Carcinogen: AZOXYMETHANE [25843-45-2], Dose [Inhibitor]: 500 PPM IN DIET FOR 4 WK BEGINNING 1 WK PRIOR TO FIRST CARCINOGEN DOSE (STUDY DURATION: 35 WK), Route [Inhibitor]: ORAL, Species: RAT, Strain/Sex: F344/MALE, Target Tissue: Type of Lesion: SMALL INTESTINE: TUMOR, Dose [Carcinogen]: 15 MG/KG 1X/WK FOR 3 WK (STUDY DURATION: 35 WK), Promoter: NONE); 59%, 36%, 39%, not significant (Carcinogen: AZOXYMETHANE [25843-45-2], Dose [Inhibitor]: 500 PPM IN DIET FOR 31 WK BEGINNING 1 WK POST LAST CARCINOGEN DOSE (STUDY DURATION: 35 WK), Route [Inhibitor]: ORAL, Species: RAT, Strain/Sex: F344/MALE, Target Tissue: Type of Lesion: LARGE INTESTINE: TUMOR, Dose [Carcinogen]: 15 MG/KG 1X/WK FOR 3 WK (STUDY DURATION: 35 WK), Promoter: NONE); 23%, 27%, -17%, not significant (Carcinogen: AZOXYMETHANE [25843-45-2], Dose [Inhibitor]: 500 PPM IN DIET FOR 31 WK BEGINNING 1 WK POST LAST CARCINOGEN DOSE (STUDY DURATION: 35 WK), Route [Inhibitor]: ORAL, Species: RAT, Strain/Sex: F344/MALE, Target Tissue: Type of Lesion: SMALL INTESTINE: TUMOR, Dose [Carcinogen]: 15 MG/KG 1X/WK FOR 3 WK (STUDY DURATION: 35 WK), Promoter: NONE); 100%, 90%, 10%, not significant (Carcinogen: BENZO[A]PYRENE, 50-32-8, Dose [Inhibitor]: 0.06 MMOL/G OF DIET DAILY STARTING 8 D BEFORE AND CONTINUING THROUGH 3 D AFTER CARCINOGEN TREATMENT FOLLOWED BY OBSERVAT, Route [Inhibitor]: ORAL, Species: MOUSE, Strain/Sex: ICR/FEMALE, Target Tissue: Type of Lesion: FORESTOMACH: NEOPLASM, Dose [Carcinogen]: 1 MG IN 0.2 ML CORN OIL 2/WK FOR 4 WK, Promoter: NONE USED); 18/18 (100%), 18/18 (100%), 0%, not significant (Carcinogen: BENZO[A]PYRENE, 50-32-8, Dose [Inhibitor]: 100 MG/KG ADMINISTERED 1 HR BEFORE AND 6, 24, 48 AND 72 HR AFTER BENZO[A]PYRENE TREATMENT (STUDY DURATION: 6 MO), Route [Inhibitor]: INTRAPERITONEAL, Species: MOUSE, Strain/Sex: STRAIN-A/MALE, Target Tissue: Type of Lesion: LUNG: ADENOMA, Dose [Carcinogen]: 100 MG/KG ONCE, Promoter: NONE USED). The “tumour outcome (control, treated, inhibition, significance)” value runs as follows: (Carcinogen: BENZO[A]PYRENE, 50-32-8, Dose [Inhibitor]: 100 MG/KG ADMINISTERED 1 HR BEFORE AND 6, 24, 48 AND 72 HR AFTER CARCINOGEN TREATMENT FOLLOWED BY 6 MO OBSERVATION PERIO, Route [Inhibitor]: INTRAPERITONEAL, Species: MOUSE, Strain/Sex: STRAIN A/MALE, Target Tissue: Type of Lesion: LUNG: ADENOMA, Dose [Carcinogen]: 100 MG/KG ONCE, Promoter: NONE USED) 18/18 (100%), 18/18 (100%), 0%, not significant; (Carcinogen: N-NITROQUINOLINE-1-OXIDE, 56-57-5, Dose [Inhibitor]: 0, 500 PPM IN DIET FOR 7 WK BEGINNING 1 WK PRIOR TO START OF CARCINOGEN TREATMENT (STUDY DURATION: 32 WK), Route [Inhibitor]: ORAL, Species: RAT, Strain/Sex: F344\MALE, Target Tissue: Type of Lesion: TONGUE: CARCINOMA, Dose [Carcinogen]: 20 PPM IN DRINKING WATER FOR 5 WK, Promoter: NONE USED) 9/15 (60%), 1/14 (7%), 88%, p=0.0035.
